Data on five compounds can be found in ChEMBL document CHEMBL1125933, “Arocalciferols: synthesis and biological evaluation of aromatic side-chain analogues of 1 alpha,25-dihydroxyvitamin D3(1a)” (1991).

The species named for test [1] is Homo sapiens. Kind of test: Inhibitory effect (10e-6 M) on the 25-hydroxyvitamin D3-1-hydroxylase activity.
Test [2] is filed under the species Homo sapiens. Kind of test: 25-hydroxyvitamin D3-1-hydroxylase activity (10e-6 M) was measured as %control.
The target in test [3] is Vitamin D3 receptor (Homo sapiens) (UniProt P11473). Kind of test: Relative competitive index values for binding to 1,25(OH)2D3 receptor of human HL-60 cells.
The test system of test [4] is Gallus gallus. The test is described as follows: Effect on intestinal calcium absorption was measured in vivo, in the vitamin D deficient chick. The class given is functional. Details: reference not given here.
The subject of test [5] is Vitamin D3 receptor (Gallus gallus). Kind of test: Relative competitive index values for binding to 1,25(OH)2D3 receptor of chick intestine.
In test [6] the test system is Gallus gallus. The test is described as follows: Effect on bone calcium mobilization was measured in vivo, in the vitamin D deficient chick. The class given is functional, Bone element. Also on record: reference not given here.
In test [7] the target is T1, Vitamin D-binding protein (Homo sapiens) (UniProt P02774).
T1 sequence (whole entry): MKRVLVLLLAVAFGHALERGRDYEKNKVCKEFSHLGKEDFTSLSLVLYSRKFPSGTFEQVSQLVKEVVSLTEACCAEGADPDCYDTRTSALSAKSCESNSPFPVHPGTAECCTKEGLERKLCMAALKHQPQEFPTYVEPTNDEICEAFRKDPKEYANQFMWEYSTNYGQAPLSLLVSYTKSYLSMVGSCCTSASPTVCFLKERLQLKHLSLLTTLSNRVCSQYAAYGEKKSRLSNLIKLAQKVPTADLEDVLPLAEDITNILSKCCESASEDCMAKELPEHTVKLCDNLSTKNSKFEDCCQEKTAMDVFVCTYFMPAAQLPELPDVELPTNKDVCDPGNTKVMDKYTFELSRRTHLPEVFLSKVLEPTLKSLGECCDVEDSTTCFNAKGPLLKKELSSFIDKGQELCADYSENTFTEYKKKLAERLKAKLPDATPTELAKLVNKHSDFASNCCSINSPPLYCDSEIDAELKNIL
Kind of test: Relative competitive index for binding to vitamin D binding protein.

For test [8], the target named is Vitamin D3 receptor (Homo sapiens) (UniProt P11473). The test is described as follows: Relative competitive index values for binding to 1,25(OH)2D3 receptor of human HL-60 cells. This is another data set of the same source.
Test [9] is filed under the species Homo sapiens. Kind of test: Inhibitory effect (10e-6 M) on the 25-OH-D3-1-hydroxylase activity. The class given is functional.
The species entered for test [10] is Homo sapiens. The test is described as follows: 25-OH-D3-1-hydroxylase activity (10e-6 M) was measured as %control. The class given is functional.

Structures are written as SMILES.

In the test filed under Homo sapiens [1], `C=C1/C(=C\C=C2/CCC[C@]3(C)[C@@H]([C@H](C)CCCC(C)(C)O)CC[C@@H]23)C[C@@H](O)C[C@@H]1O` came in with an Activity of 2.1 pmol/10 min. The compound further returned a Control in the test listed under Homo sapiens [2] of 12%.

For `C=C1/C(=C\C=C2/CCC[C@]3(C)[C@@H]([C@H](C)Cc4cccc(C)c4)CC[C@@H]23)C[C@@H](O)C[C@@H]1O`, the RCI in test [3] came out at 3.5; in test [5], 1.4. The compound also showed an Activity in the test filed under Homo sapiens [1] of 16.7 pmol/10 min. Also, the figures for the Ratio with Gallus gallus [4] and with Gallus gallus [6] were 0.31 and 0.06, respectively. For the same compound, the Control in the test listed under Homo sapiens [2] amounted to 96%.

In the case of `C=C1/C(=C\C=C2/CCC[C@]3(C)[C@@H]([C@H](C)Cc4cccc(O)c4)CC[C@@H]23)C[C@@H](O)C[C@@H]1O`, the RCI came out at 27 in test [3], 28 in test [5] and 980 in test [7]. In the test listed under Homo sapiens [1], this compound returned an Activity of 16.9 pmol/10 min. The Ratio amounted to 0.28 with Gallus gallus [4] and 1 in the test with Gallus gallus [6]. Besides, the Control in the test filed under Homo sapiens [2] worked out at 97%.

`C=C1/C(=C\C=C2/CCC[C@]3(C)[C@@H]([C@H](C)Cc4cccc(C(C)(C)O)c4)CC[C@@H]23)C[C@@H](O)C[C@@H]1O`: the values for the RCI in test [3], in [5] and in test [7] were 32, 62 and 2, respectively. The Activity in the test filed under Homo sapiens [1] was found to be 17.2 pmol/10 min. The Ratio in the test with Gallus gallus [4] was 30.7; in the test with Gallus gallus [6], 7.7. The Control in the test listed under Homo sapiens [2] was 99%.

For the compound `C=C1/C(=C\C=C2/CCC[C@]3(C)[C@@H]([C@H](C)Cc4ccc(O)cc4)CC[C@@H]23)C[C@@H](O)C[C@@H]1O`, the Ratio in the test with Gallus gallus [4] was determined as 0.04; in the test with Gallus gallus [6], 0.08. Moreover, the RCI in test [8] amounted to 12; in [5], 5; in test [7] it was 1980. Moreover, the Activity in the test filed under Homo sapiens [9] is 18.1 pmol/10 min. The Control in the test listed under Homo sapiens [10] was determined as 104%.
